Earlier results on 3 molecules are cited in US20050065088A1, “Pharmaceutical compositions and methods comprising combinations of 2-alkylidene-19-nor-vitamin D derivatives and parathyroid hormone” (Pfizer Inc., priority 2003, published 2005).

SMILES strings stand for the structures.

Data set [1] deals with intestinal calcium transport. The note with it: chronic dosing 7 days, 130 or 260 pmol dose (1,25-(OH)2D3 only 260 pmol/day).
For data set [2], the system named is serum calcium (bone calcium mobilization). Particulars: for selectivity bone calcium mobilization versus intestinal calcium transport, in words / bone calcium mobilization, result in words: chronic dosing 7 days; for bone calcium mobilization, result in words: 130 and 260 pmol/day.
Another data set relates to HL-60 cells. Particulars: result in words.

As to `C=C1/C(=C\C=C2/CCC[C@]3(C)[C@@H]([C@H](C)CCCC(C)(C)O)CC[C@@H]23)C[C@@H](O)C[C@@H]1O` [1,25-(OH)2D3, 1,25-dihydroxyvitamin D3, reference compound], in data set [1], the “intestinal calcium transport, result in words” value is on record as “expected elevation”.
`C=C1[C@H](O)CC(=C/C=C2\CCC[C@]3(C)[C@@H]([C@@H](C)CCCC(C)(C)O)CC[C@@H]23)C[C@H]1O` [2-Methylene-19-Nor-20S-1,25-(OH)2D3, (20S)-1α,25-dihydroxy-2-methylene-19-nor-vitamin D3]: the “activity on bone calcium mobilization (serum calcium) relative to the native hormone” value in data set [2] (130 pmol/day, 7 days, 'at least 10 and possible 100-1,000 times') is “at least 10 times”. Further, in data set [2], the “selectivity bone calcium mobilization versus intestinal calcium transport, in words” value is reported as “selective for the mobilization of calcium from bone” and the “bone calcium mobilization, result in words” value is “most potent compound tested”. Also, the “intestinal calcium transport, result in words” value in data set [1] is “no significant change”. Further, the “inducing differentiation of HL-60 cells to the monocyte” value in the data set with HL-60 cells is recorded as “extremely potent”.
`C=C1[C@H](O)CC(=C/C=C2\CCC[C@]3(C)[C@@H]([C@H](C)CCCC(C)(C)O)CC[C@@H]23)C[C@H]1O` [2-Methylene-19-Nor-1,25-(OH)2D3, 1α,25-dihydroxy-2-methylene-19-nor-vitamin D3]: in data set [2], the “selectivity bone calcium mobilization versus intestinal calcium transport, in words” value is on record as “selective for the mobilization of calcium from bone” and the “bone calcium mobilization, result in words” value was “extremely strong bone calcium mobilization”. Further, the “bone calcium mobilization activity relative to 1,25-(OH)2D3” value in data set [2] (chronic dosing, 7 days, 'likely to be') is on record as 10-100 times. Also, the “intestinal calcium transport, result in words” value in data set [1] was “no intestinal calcium transport activity”. Further, the “inducing differentiation of HL-60 cells to the monocyte” value with HL-60 cells is on record as “activity similar to 1,25-(OH)2D3”.
